Assay results from US6258830A, “Stable gel formulation for topical treatment of skin conditions” (Allergan Sales, Inc., priority 1999, dated 2001).
Converted amounts (≈) assume the structure as drawn.

How the values were obtained:
[1] = Treatment of acne and psoriasis; set-up: species or system humans; details: in vivo
[2] = In vitro release of AGN from the 0.1% gels, slope of % drug released vs. square root of time; assay type: physicochemical; details: Table XVIII, beyond release of 10% of the drug
Description: The release of AGN through each of the 0.1% gels was studied using a previously developed release method. The collected fractions were then assayed directly using HPLC Method HL036.
The data generated from the assay of the collected fractions for each gel were used to plot the release profile of the drug as the % drug released vs. square root of time. For each release profile, the slope of the linear region containing at least 6 points was calculated using linear regression. The standard deviation and correlation coefficient of each slope was also calculated.
(§1) The saturated solubility values, and slopes of the line obtained from the plot of % drug released vs. square root of time for each gel were analyzed statistically. […] RS/Discover® was used to calculate equations which fit the data and to construct response surfaces.
Drug release was studied from all […] formulated gels as described previously. The release profiles for each gel were an average of six runs, and were plotted as % Drug released vs. Square root of time.
In order to compare the release rates of drug from each formulation, the slope of the linear portion of the plot of % Drug released vs. Square root of time was computed for each of the 18 gels. The slope for each plot was obtained as an average of six runs and based on a correlation coefficient (R^2)>0.94800.

[3] = Saturated solubility of AGN in the vehicle of the gels (HPLC), with Student's t-test against gel B; assay type: physicochemical; details: for solubility: gel vehicle with propionic acid, propionic acid for carbomer
Description: To determine the saturated solubility of the drug in the vehicle of each of the 18 gel formulations, solvent systems containing the same ingredients as the gels were prepared. The saturated solubility was determined once in solutions of the vehicle without carbomer and base, and another time by substituting propionic acid for carbomer in order to ease filtration of the solution while keeping the ionic strength of the solution as close to that of the gel as possible. The solutions were filtered through a 0.45 μm filter to remove any crystals which may have formed. The resulting solutions were then diluted and their drug content was assayed using High Performance Liquid Chromatography (HPLC) as described in Method HL036.
as §1

[4] = Solubility of AGN in various aqueous solutions at 35° ± 0.5° C. (Table I); assay type: physicochemical
[5] = Stability of AGN formulations; assay type: physicochemical
[6] = Solubility of AGN in PEG 400; assay type: physicochemical; details: peg 400, organic solvent or mixture

**Q.** With `CCOC(=O)c1ccc(C#Cc2ccc3c(c2)C(C)(C)CCS3)nc1` [AGN] as the molecule, how does the “activity in the treatment of acne and psoriasis” value [1] read?
**A.** active in the treatment of acne and psoriasis

**Q.** What about the “rate of drug release over time” value [2] of the same molecule?
**A.** remains constant even after three hours

**Q.** What about the “drug present in the aqueous based gel in the form of solid particles” value ([3]; from solubility data) of the same molecule?
**A.** approximately 90%

**Q.** What about the solubility ([3]; hexylene glycol 0%, polysorbate 40 0.0%, poloxamer 407 0.0%) of the same molecule?
**A.** 14.5 ± 0.3 µg/mL (≈ 41.3 µM)

**Q.** And the solubility ([3]; hexylene glycol 0%, polysorbate 40 0.0%, poloxamer 407 0.2%)?
**A.** 67.9 ± 4.4 µg/mL (≈ 193 µM)

**Q.** What about the solubility ([3]; hexylene glycol 0%, polysorbate 40 0.0%, poloxamer 407 0.4%) of the same molecule?
**A.** 87.4 ± 6.6 µg/mL (≈ 249 µM)

**Q.** What about the solubility ([3]; hexylene glycol 0%, polysorbate 40 0.2%, poloxamer 407 0.0%) of the same molecule?
**A.** 52.3 ± 2.7 µg/mL (≈ 149 µM)

**Q.** What about the solubility ([3]; hexylene glycol 0%, polysorbate 40 0.2%, poloxamer 407 0.2%) of the same molecule?
**A.** 69.7 ± 3.2 µg/mL (≈ 198 µM)

**Q.** And the solubility ([3]; hexylene glycol 0%, polysorbate 40 0.2%, poloxamer 407 0.4%)?
**A.** 80 ± 4 µg/mL (≈ 228 µM)

**Q.** And the solubility ([3]; hexylene glycol 0%, polysorbate 40 0.4%, poloxamer 407 0.0%)?
**A.** 89.3 ± 8.8 µg/mL (≈ 254 µM)

**Q.** What about the solubility ([3]; hexylene glycol 0%, polysorbate 40 0.4%, poloxamer 407 0.2%) of the same molecule?
**A.** 77.5 ± 0.8 µg/mL (≈ 221 µM)

**Q.** What about the solubility ([3]; hexylene glycol 0%, polysorbate 40 0.4%, poloxamer 407 0.4%) of the same molecule?
**A.** 86.7 ± 6 µg/mL (≈ 247 µM)

**Q.** And the solubility ([3]; hexylene glycol 2%, polysorbate 40 0.0%, poloxamer 407 0.0%)?
**A.** 20.9 ± 1.7 µg/mL (≈ 59.5 µM)

**Q.** What about the solubility ([3]; hexylene glycol 2%, polysorbate 40 0.0%, poloxamer 407 0.2%) of the same molecule?
**A.** 73.7 ± 9 µg/mL (≈ 210 µM)

**Q.** What about the solubility ([3]; hexylene glycol 2%, polysorbate 40 0.0%, poloxamer 407 0.4%) of the same molecule?
**A.** 86.3 ± 2.6 µg/mL (≈ 246 µM)

**Q.** And the solubility ([3]; hexylene glycol 2%, polysorbate 40 0.2%, poloxamer 407 0.0%)?
**A.** 75.9 ± 3.5 µg/mL (≈ 216 µM)

**Q.** And the solubility ([3]; hexylene glycol 2%, polysorbate 40 0.2%, poloxamer 407 0.2%)?
**A.** 93.8 ± 0.1 µg/mL (≈ 267 µM)

**Q.** What about the solubility ([3]; hexylene glycol 2%, polysorbate 40 0.2%, poloxamer 407 0.4%) of the same molecule?
**A.** 102 ± 2.9 µg/mL (≈ 290 µM)

**Q.** And the solubility ([3]; hexylene glycol 2%, polysorbate 40 0.4%, poloxamer 407 0.0%)?
**A.** 98 ± 11.7 µg/mL (≈ 279 µM)

**Q.** What about the solubility ([3]; hexylene glycol 2%, polysorbate 40 0.4%, poloxamer 407 0.2%) of the same molecule?
**A.** 130 ± 6.2 µg/mL (≈ 370 µM)

**Q.** And the solubility ([3]; hexylene glycol 2%, polysorbate 40 0.4%, poloxamer 407 0.4%)?
**A.** 118 ± 3.8 µg/mL (≈ 336 µM)

**Q.** And the solubility ([4]; 0.07% Polysorbate 40, 35° C.)?
**A.** 3.7 ± 0.6 µg/mL (≈ 10.5 µM)

**Q.** And the solubility ([4]; 0.15% Polysorbate 40, 35° C.)?
**A.** 9.2 ± 1.4 µg/mL (≈ 26.2 µM)

**Q.** And the solubility ([4]; 0.30% Polysorbate 40, 35° C.)?
**A.** 18.3 ± 1.8 µg/mL (≈ 52.1 µM)

**Q.** And the solubility ([4]; 0.50% Polysorbate 40, 35° C.)?
**A.** 33.2 ± 0.3 µg/mL (≈ 94.5 µM)

**Q.** And the solubility ([4]; 1% Oleth-20/Water, 35° C.)?
**A.** 73.3 ± 3 µg/mL (≈ 209 µM)

**Q.** What about the solubility ([4]; 2% Oleth-20/Water, 35° C.) of the same molecule?
**A.** 149.2 ± 0.6 µg/mL (≈ 425 µM)

**Q.** And the solubility ([4]; 4% Oleth-20/Water, 35° C.)?
**A.** 311 ± 7 µg/mL (≈ 885 µM)

**Q.** And the “Avg. Solubility” value ([4]; 20% Ethanol/Water, 35° C.)?
**A.** Not Detected

**Q.** And the “Avg. Solubility” value ([4]; 20% PEG-400/Water, 35° C.)?
**A.** Not Detected

**Q.** And the solubility ([4]; 96% Oleth-20/Water, 35° C.)?
**A.** 435.2 ± 1.1 µg/mL (≈ 1240 µM)

**Q.** What about the “Avg. Solubility” value ([4]; 100% Water, 35° C.) of the same molecule?
**A.** Not Detected

**Q.** What about the solubility ([4]; organic solvent or mixture, 40% Ethanol/Water, 35° C.) of the same molecule?
**A.** 147 ± 20.9 µg/mL (≈ 419 µM)

**Q.** What about the solubility ([4]; organic solvent or mixture, 40% PEG-400/Water, 35° C.) of the same molecule?
**A.** 4.4 ± 0.5 µg/mL (≈ 12.5 µM)

**Q.** What about the solubility ([4]; organic solvent or mixture, 60% Ethanol/Water, 35° C.) of the same molecule?
**A.** 22235 ± 7.8 µg/mL (≈ 63300 µM)

**Q.** And the solubility ([4]; organic solvent or mixture, 60% PEG-400/Water, 35° C.)?
**A.** 89.6 ± 1.1 µg/mL (≈ 255 µM)

**Q.** And the solubility ([4]; organic solvent or mixture, 80% Ethanol/Water, 35° C.)?
**A.** 8220 ± 221 µg/mL (≈ 23400 µM)

**Q.** What about the solubility ([4]; organic solvent or mixture, 80% PEG-400/Water, 35° C.) of the same molecule?
**A.** 2160 ± 89.9 µg/mL (≈ 6150 µM)

**Q.** And the “solubility in water (in words)” value ([4]; water)?
**A.** extremely low

**Q.** And the “stabilization of alcoholic solutions containing AGN” value ([5]; alcoholic solutions with BHT (preformulation report))?
**A.** stabilized by BHT

**Q.** What about the “stability of laboratory formulation of AGN” value ([5]; prepared without ascorbic acid) of the same molecule?
**A.** poor stability

**Q.** And the solubility [6]?
**A.** 2200 µg/mL (≈ 6260 µM)
